One assay deals with HCT116 cells. As to the kind of experiment: Mitotic arrest assay on HCT116 cells (phospho-histone H3 Ser10). The assay is classed as cell-based, human. As to conditions: lowest active dose; for Mitotic arrest HCT116 LAD: HCT116 cells, the values are: pLAD (−log M lowest active dose); for minimal effective concentration: Homo sapiens, HCT-116, HCT116 cells, read-out: Mitotic arrest HCT116 LAD (converted). The essentials:
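Seeded overnight, then compound-treated 6 h at 37 °C (≤0.1% DMSO); fixed, stained with Alexa Fluor 488 anti-phospho-H3 (Ser10) plus Hoechst 33342, imaged on InCell Analyzer 1000. Blank-subtracted signal divided by SD (sigma), triplicate; value is lowest dose giving sigma >5 (LAD).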

The next assay relates to PC-3 cells. As to the kind of experiment: Antiproliferative activity, Alamar Blue assay, PC-3 cells. The assay is classed as cell-based, human. The following applies: for IC50: Homo sapiens, PC-3, PC3 cells, read-out: PC3 antiproliferative activity pIC50 (converted). In outline: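 PC-3 cells seeded at 4.5×10^3 cells/ml, left to adhere 24 hr, then exposed to compound for 4 days. Resazurin (Alamar Blue) added for a further 24 hrs at 37° C; fluorescence read at 540/590 nm. Viability as % of untreated control, mean of 3 wells; IC50 by probit analysis, reported as pIC50.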

50 compounds from patent US8778966B2, “Quinolinone derivatives as PARP and tank inhibitors” (Janssen Pharmaceutica, NV, priority 2007, dated 2014) can be followed below.

Where two headings read alike, the source gives them in different places.

`CCc1cc2ccc(C(C)(C#N)Cc3cccc(C#N)n3)cc2[nH]c1=O` (single isomer, unassigned) [Compound 206] returned a Mitotic arrest HCT116 LAD with HCT116 cells of 5. For `CCc1cc2ccc(C(C)(C#N)Cc3cccc(C#N)n3)cc2[nH]c1=O` (single isomer, unassigned) [Compound 207], the “PC3 antiproliferative activity pIC50” value in the assay with PC-3 cells (PC3 cells, Alamar Blue) was found to be 6.8. In the assay with HCT116 cells, the Mitotic arrest HCT116 LAD stood at 7. For `CCc1cc2ccc([C@@](C)(C#N)Cc3cccc(N(C)C)c3)cc2[nH]c1=O` (single isomer, unassigned) [Compound 258], in the assay with PC-3 cells (Alamar Blue), the IC50 is 0.316 µM. The minimal effective concentration in the assay with HCT116 cells was 0.1 µM. The corresponding values for `CCc1cc2ccc([C@](C)(C#N)Cc3cccc(N(C)C)c3)cc2[nH]c1=O` (single isomer, unassigned) [Compound 259] are 10 µM and 10 µM. On to `CCC[C@@](C#N)(Cc1ccccc1)c1ccc2cc(CC)c(=O)[nH]c2c1` (single isomer, unassigned) [Compound 263], for which the IC50 with PC-3 cells (Alamar Blue) was 5.01 µM. Moreover, in the assay with HCT116 cells, the minimal effective concentration is 1 µM. As to `CCC[C@](C#N)(Cc1ccccc1)c1ccc2cc(CC)c(=O)[nH]c2c1` (single isomer, unassigned) [Compound 264], the IC50 in the assay on PC-3 cells (Alamar Blue) is 10 µM. In the assay on HCT116 cells, the minimal effective concentration was 10 µM. Regarding `CCc1cc2ccc([C@@](C)(C#N)Cc3cccc(C#N)c3)cc2[nH]c1=O` (single isomer, unassigned) [Compound 268], the IC50 in the assay with PC-3 cells (Alamar Blue) is 10 µM. Further, the minimal effective concentration in the assay on HCT116 cells is 10 µM. Consider `CCc1cc2ccc([C@](C)(C#N)Cc3cccc(C#N)c3)cc2[nH]c1=O` (single isomer, unassigned) [Compound 269], for which the IC50 in the assay on PC-3 cells (Alamar Blue) was 0.398 µM. For the same compound, the minimal effective concentration in the assay with HCT116 cells was 0.1 µM. The corresponding values for `CCc1cc2ccc([C@](C)(C#N)C[C@@H]3Cc4cc(C)ccc4O3)cc2[nH]c1=O` (single isomer, unassigned) [Compound 400] are 10 µM and 10 µM.

With `C#Cc1cccc(C[C@](C)(C#N)c2ccc3cc(CC)c(=O)[nH]c3c2)c1` [Compound 2], in the assay with PC-3 cells (Alamar Blue), the IC50 was 10 µM. In the assay on HCT116 cells, the minimal effective concentration was 10 µM.

With `C#Cc1cccc(C[C@@](C)(C#N)c2ccc3cc(CC)c(=O)[nH]c3c2)c1` [Compound 3], the IC50 in the assay with PC-3 cells (Alamar Blue) was 0.1 µM. The minimal effective concentration in the assay on HCT116 cells was 0.01 µM. As to `CCc1cc2ccc(C(C#N)(CC)Cc3ccccc3)cc2[nH]c1=O` (stereo not drawn) [Compound 32], the IC50 with PC-3 cells was 5.01 µM. For the same compound, in the assay with HCT116 cells, the minimal effective concentration is 1 µM.

Regarding `COc1ccccc1-c1nc(CC(C)(C#N)c2ccc3cc(C)c(=O)[nH]c3c2)no1` (stereo not drawn) [Compound 33], the IC50 with PC-3 cells was 2.51 µM. Besides, in the assay on HCT116 cells, the minimal effective concentration was 1 µM. Regarding `Cc1cc2ccc(C(C)(C#N)Cc3cccc(C#N)c3)cc2[nH]c1=O` (stereo not drawn) [Compound 34], the IC50 in the assay with PC-3 cells was 0.631 µM. For the same compound, in the assay on HCT116 cells, the minimal effective concentration is 0.1 µM. Consider `Cc1cc2ccc([C@@](C)(C#N)Cc3cccc(C#N)c3)cc2[nH]c1=O` [Compound 35], for which the IC50 with PC-3 cells was more than 10 µM. Also, in the assay on HCT116 cells, the minimal effective concentration was 3.16 µM. As for `Cc1cc2ccc([C@](C)(C#N)Cc3cccc(C#N)c3)cc2[nH]c1=O` [Compound 36], the IC50 in the assay with PC-3 cells is 0.2 µM. Further, the minimal effective concentration in the assay on HCT116 cells was 0.1 µM. Turning to `Cc1cc2ccc(C(C)(C#N)Cc3cccc(Cl)c3)cc2[nH]c1=O` (stereo not drawn) [Compound 37], the IC50 in the assay with PC-3 cells is 0.398 µM. The minimal effective concentration with HCT116 cells was 0.1 µM. Take `CC(C)c1cc2ccc(C(C)(C#N)Cc3ccccc3)cc2[nH]c1=O` (stereo not drawn) [Compound 38]: the IC50 in the assay on PC-3 cells was more than 10 µM. Also, in the assay on HCT116 cells, the minimal effective concentration was 3.16 µM. As for `CC(=O)c1cc2ccc(C(C)(C#N)Cc3ccccc3)cc2[nH]c1=O` (stereo not drawn) [Compound 39], the IC50 with PC-3 cells is more than 10 µM. In the assay on HCT116 cells, the minimal effective concentration was 3.16 µM. For the compound `CCc1cc2ccc(C(C)(C#N)Cc3cccc(OC[C@@H](O)CO)c3)cc2[nH]c1=O` (stereo partly drawn) [Compound 56], the IC50 in the assay on PC-3 cells (Alamar Blue) is 6.31 µM. The minimal effective concentration in the assay on HCT116 cells is 3 µM. With `CCc1cc2ccc(C(C)(C#N)Cc3cccc(CCC#N)c3)cc2[nH]c1=O` (stereo not drawn) [Compound 169], the IC50 in the assay with PC-3 cells (Alamar Blue) is 3.16 µM. In the assay on HCT116 cells, the Mitotic arrest HCT116 LAD was found to be 6.

Turning to `CCc1cc2ccc(C(C)(C#N)Cc3cccc(CNS(C)(=O)=O)c3)cc2[nH]c1=O` (stereo not drawn) [Compound 170], the IC50 in the assay with PC-3 cells (Alamar Blue) was 10 µM. Moreover, the minimal effective concentration with HCT116 cells is 3 µM. On to `C=Cc1cccc(CC(C)(C#N)c2ccc3cc(CC)c(=O)[nH]c3c2)c1` (stereo not drawn) [Compound 172], for which the IC50 in the assay with PC-3 cells (Alamar Blue) was 0.631 µM. Also, the minimal effective concentration in the assay on HCT116 cells is 0.3 µM. Consider `CCc1cc2cc(F)c(C(C)(C#N)Cc3cccc(C#N)c3)cc2[nH]c1=O` (stereo not drawn) [Compound 175], for which, in the assay on PC-3 cells (Alamar Blue), the IC50 was 1 µM. Further, in the assay on HCT116 cells, the minimal effective concentration is 0.3 µM.

In the case of `CCc1c(C)c2ccc(C(C)(C#N)Cc3cccc(C#N)c3)cc2[nH]c1=O` (stereo not drawn) [Compound 181], the IC50 with PC-3 cells (Alamar Blue) is 3.98 µM. Further, the minimal effective concentration with HCT116 cells is 0.3 µM. In the case of `CCc1cc2cc(OCCOC)c(C(C)(C#N)Cc3cccc(C#N)c3)cc2[nH]c1=O` (stereo not drawn) [Compound 182], in the assay with PC-3 cells (Alamar Blue), the IC50 was 5.01 µM. Moreover, in the assay with HCT116 cells, the minimal effective concentration is 10 µM. The corresponding values for `CCc1cc2ccc(C(C)(C#N)Cc3cccc(C#CCO)c3)cc2[nH]c1=O` (stereo not drawn) [Compound 183] are 0.316 µM and 0.1 µM. The corresponding values for `CCc1cc2ccc(C(F)(C#N)Cc3ccccc3)cc2[nH]c1=O` (stereo not drawn) [Compound 187] are 7.94 µM and 3 µM. In the case of `CCc1cc2ccc(C(C)(C#N)CN(C)Cc3ccccc3)cc2[nH]c1=O` (stereo not drawn) [Compound 189], in the assay with PC-3 cells (Alamar Blue), the IC50 was 3.16 µM. Besides, in the assay with HCT116 cells, the minimal effective concentration was 1 µM. The corresponding values for `CCc1cc2ccc(C(C)(C#N)C(C)c3ccccc3)cc2[nH]c1=O` (stereo not drawn) [Compound 198] are 2 µM and 0.3 µM.

As to `CCc1cc2ccc([C@](C)(C#N)[C@@H](C)c3ccccc3)cc2[nH]c1=O` [Compound 199], the IC50 in the assay on PC-3 cells (Alamar Blue) was 10 µM. For the same compound, the minimal effective concentration in the assay with HCT116 cells is 3 µM. The corresponding values for `CCc1cc2ccc([C@](C)(C#N)[C@H](C)c3ccccc3)cc2[nH]c1=O` [Compound 200] are 1 µM and 0.3 µM. The corresponding values for `CCc1cc2ccc(C(C)(C#N)Cc3cccc(C#C[Si](C)(C)C)n3)cc2[nH]c1=O` (stereo not drawn) [Compound 210] are 0.501 µM and 1 µM. With `C#Cc1cccc(CC(C)(C#N)c2ccc3cc(CC)c(=O)[nH]c3c2)n1` (stereo not drawn) [Compound 211], the IC50 in the assay on PC-3 cells (Alamar Blue) is 0.501 µM. For the same compound, in the assay with HCT116 cells, the minimal effective concentration is 1 µM. The corresponding values for `CCc1cc2ccc(C(C)(C#N)Cc3cccc(N(C)C)n3)cc2[nH]c1=O` (stereo not drawn) [Compound 213] are 0.501 µM and 0.3 µM. The corresponding values for `CCc1cc2ccc(C(C)(C#N)Cc3cccc(I)n3)cc2[nH]c1=O` (stereo not drawn) [Compound 214] are 0.631 µM and 0.3 µM. With `CCOC(=O)c1cccc(CC(C)(C#N)c2ccc3cc(CC)c(=O)[nH]c3c2)n1` (stereo not drawn) [Compound 215], the IC50 with PC-3 cells (Alamar Blue) is 6.31 µM. Further, the minimal effective concentration in the assay on HCT116 cells was 1 µM. Turning to `CCc1cc2ccc(C(C)(C#N)Cc3cccc(COC)n3)cc2[nH]c1=O` (stereo not drawn) [Compound 216], the IC50 in the assay with PC-3 cells (Alamar Blue) was 10 µM. Moreover, the minimal effective concentration in the assay with HCT116 cells was 1 µM. In the case of `CCc1cc2ccc(C(C)(C#N)Cc3cccc(OCCOC)n3)cc2[nH]c1=O` (stereo not drawn) [Compound 219], in the assay on PC-3 cells (Alamar Blue), the IC50 is 2.51 µM. For the same compound, the minimal effective concentration with HCT116 cells was 1 µM.

Regarding `CCc1cc2ccc(C(C)(C#N)Cc3cccc(CN)n3)cc2[nH]c1=O` (stereo not drawn) [Compound 221], the IC50 in the assay on PC-3 cells (Alamar Blue) is 1 µM. Also, the minimal effective concentration in the assay with HCT116 cells was 3 µM. `CCc1cc2ccc(C(C)(C#N)Cc3cccc(OCCO)c3)cc2[nH]c1=O` (stereo not drawn) [Compound 262]: the IC50 in the assay with PC-3 cells (Alamar Blue) is 0.501 µM. In addition, in the assay with HCT116 cells, the minimal effective concentration was 0.3 µM. With `CCc1cc2ccc(C(C)(C#N)CCOc3cccc(C(F)(F)F)c3)cc2[nH]c1=O` (stereo not drawn) [Compound 274], the IC50 in the assay with PC-3 cells (Alamar Blue) is 3.98 µM. The minimal effective concentration in the assay with HCT116 cells was 1 µM. On to `CCc1cc2ccc(C(C)(C#N)Cc3cccc(CN)c3)cc2[nH]c1=O` (stereo not drawn) [Compound 290], for which, in the assay on PC-3 cells (Alamar Blue), the IC50 was 0.501 µM. For the same compound, the minimal effective concentration in the assay on HCT116 cells is 0.3 µM.

Turning to `CCc1cc2ccc(C(C)(C#N)Cc3cccc(/C=C/S(C)(=O)=O)c3)cc2[nH]c1=O` (stereo not drawn) [Compound 292], in the assay with PC-3 cells (Alamar Blue), the IC50 was 0.501 µM. Also, the minimal effective concentration with HCT116 cells is 0.1 µM. The corresponding values for `CCc1c(Cl)c2ccc(C(C)(C#N)Cc3cccc(C#N)c3)cc2[nH]c1=O` (stereo not drawn) [Compound 293] are 6.31 µM and 0.3 µM. Take `CCc1cc2cc(OC)c(C(C)(C#N)Cc3ccccc3)cc2[nH]c1=O` (stereo not drawn) [Compound 294]: the IC50 in the assay on PC-3 cells (Alamar Blue) was 10 µM. Moreover, the minimal effective concentration in the assay on HCT116 cells was 3 µM.

In the case of `CCc1cc2ccc(C(C)(C#N)Cc3cccc(C#CCOC)c3)cc2[nH]c1=O` (stereo not drawn) [Compound 297], in the assay with PC-3 cells (Alamar Blue), the IC50 is 1 µM. Further, in the assay on HCT116 cells, the minimal effective concentration is 0.3 µM.

In the case of `CCc1cc2ccc(C(C)(C#N)Cc3cccc(C#CCN(C)C)c3)cc2[nH]c1=O` (stereo not drawn) [Compound 298], in the assay with PC-3 cells (Alamar Blue), the IC50 is 6.31 µM. Also, in the assay with HCT116 cells, the minimal effective concentration is 1 µM.

For `CCc1cc2ccc(C(C)(C#N)CNCc3cccc(C#N)c3)cc2[nH]c1=O` (stereo not drawn) [Compound 301], in the assay with PC-3 cells (Alamar Blue), the IC50 is 10 µM. Further, the minimal effective concentration with HCT116 cells was 1 µM.

Turning to `CCc1cc2ccc(C(C)(C#N)Cc3cnc(Cl)nc3Cl)cc2[nH]c1=O` (stereo not drawn) [Compound 306], the IC50 in the assay with PC-3 cells (Alamar Blue) is 2 µM. The minimal effective concentration with HCT116 cells is 10 µM.
